Laboratory results: patent publication US20230355594A1, “TOPICAL OPHTHALMOLOGICAL COMPOSITIONS” (ADS THERAPEUTICS LLC, priority 2020, published 2023)
Several values for one entry are separate records, joined by “and”; a condition that tells them apart may be missing. Equal entries are not always repeated. Where two headings read alike, the source gives them in different places.

Conditions: for Atropine concentraion, Observed stable concentration after 10X serial dilution of the saturating concentration: successive 10X dilutions
[1] = 99.25% F6H8, 0.75% phenylethyl alcohol

SMILES: CN1[C@@H]2CC[C@H]1C[C@@H](OC(=O)C(CO)c1ccccc1)C2 (stereo partly shown) [atropine]
- Atropine concentraion, Measured saturating concentraion by HPLC/UV (98.00% F6H8, 2.00% isopropanol): 0.153 w/w %
- Atropine concentraion, Measured saturating concentraion by HPLC/UV (99.25% F6H8, 0.75% ethanol): 0.108 w/w %
- Atropine concentraion, Observed stable concentration after 10X serial dilution of the saturating concentration (99.25% F6H8, 0.75% ethanol): 0.0108 w/w % and 0.00108 w/w % and 0.000108 w/w %
- Atropine concentraion, Measured saturating concentraion by HPLC/UV (99.25% F6H8, 0.75% isopropanol): 0.082 w/w %
- Atropine concentraion, Observed stable concentration after 10X serial dilution of the saturating concentration (99.25% F6H8, 0.75% isopropanol): 0.0082 w/w % and 0.00082 w/w % and 0.000082 w/w %
- Atropine concentraion, Measured saturating concentraion by HPLC/UV [1]: 0.085 w/w %
- Atropine concentraion, Observed stable concentration after 10X serial dilution of the saturating concentration [1]: 0.0085 w/w % and 0.00085 w/w % and 0.000085 w/w %
- Atropine concentraion, Measured saturating concentraion by HPLC/UV (99.50% F6H8, 0.50% ethanol): 0.089 w/w %
- Atropine concentraion, Measured saturating concentraion by HPLC/UV (99.50% F6H8, 0.50% isopropanol): 0.055 w/w %
- Atropine concentraion, Measured saturating concentraion by HPLC/UV (99.50% F6H8, 0.50% phenylethyl alcohol): 0.055 w/w %
- Atropine concentraion, Measured saturating concentraion by HPLC/UV (99.75% F6H8, 0.25% ethanol): 0.031 w/w %
- Atropine concentraion, Measured saturating concentraion by HPLC/UV (99.75% F6H8, 0.25% isopropanol): 0.046 w/w %
- Atropine concentraion, Measured saturating concentraion by HPLC/UV (99.75% F6H8, 0.25% phenylethyl alcohol): 0.043 w/w %
